# Literature values, collected in patent publication US20210319872A1, “DRUG AND DEVICE COMBINATION PRODUCTS WITH IMPROVED SAFETY AND EFFICACY PROFILES” (priority 2016, published 2021).
# Read-outs that look alike come from different tables or passages of the source.
# [1] = Myelodysplastic syndrome, grade 3 or 4
smiles,measurement,setting,value
CCOC(=O)[C@H](CCc1ccccc1)N[C@@H](C)C(=O)N1Cc2ccccc2C[C@H]1C(=O)O [Quinapril (Accupril)],Chest pain,in vivo,"Cardiovascular: Chest pain (2.4%), Hypotension (2.9%)"
same,Cough,in vivo,Respiratory: Cough (2% to 4.3%)
same,Dizziness,in vivo,"Neurologic: Dizziness (3.9% to 7.7%), Headache (1.7% to 6.9%)"
same,Fatigue,in vivo,Other: Fatigue (2.6%)
same,Headache,in vivo,"Neurologic: Dizziness (3.9% to 7.7%), Headache (1.7% to 6.9%)"
same,Hypotension,in vivo,"Cardiovascular: Chest pain (2.4%), Hypotension (2.9%)"
same,Nausea and vomiting,in vivo,Gastrointestinal: Nausea and vomiting (1.4% to 2.4%)
same,Serum blood urea nitrogen raised,in vivo,"Renal: Serum blood urea nitrogen raised (2% to 8%), Serum"
same,Serum creatinine raised,in vivo,creatinine raised (2% to 11%)
CCOC(=O)[C@H](CCc1ccccc1)N[C@@H](C)C(=O)N1[C@H](C(=O)O)C[C@@H]2CCC[C@@H]21 [Ramipril (Altace)],Cough,in vivo,Respiratory: Cough (8% to 12%)
same,Dizziness,in vivo,"Neurologic: Asthenia, Dizziness (2.2% to 4%), Headache (5.4%)"
same,Headache,in vivo,"Neurologic: Asthenia, Dizziness (2.2% to 4%), Headache (5.4%)"
same,Hypotension,in vivo,Cardiovascular: Hypotension (11%)
Nc1cccc2c1CN(C1CCC(=O)NC1=O)C2=O (stereo not shown) [Revlimid],"Cataract, Grade 3 or 4","Multiple myeloma, grade 3.4",1.4% (grade 3.4))
same,Multiple organ failure,[1],1.4%
same,Pneumonitis,[1],"syndrome, grade 3 or 4, 1.4%), Pulmonary embolism, Grade 3 or 4"
same,Pulmonary hypertension,[1],1.4%
same,Hepatotoxicity,in vivo,15%
same,Myocardial infarction,in vivo,< 5%
same,"Common side effect, Other",listed without frequency,Infectious disease
same,"Serious side effect, Dermatologic",listed without frequency,Stevens-Johnson syndrome
same,"Serious side effect, Hematologic",listed without frequency,Thrombosis
same,"Serious side effect, Hepatic",listed without frequency,Liver failure
same,"Serious side effect, Other",listed without frequency,"Other: Angioedema, Multiple organ failure (Myelodysplastic"
same,"Serious side effect, Renal",listed without frequency,"Renal: Interstitial nephritis, acute"
same,"Anemia, All grades",mantle cell lymphoma,31%
same,"Anemia, Grade 3 or 4",mantle cell lymphoma,11%
same,Arthralgia,mantle cell lymphoma,8%
same,Asthenia,mantle cell lymphoma,14%
same,Backache,mantle cell lymphoma,13%
same,Constipation,mantle cell lymphoma,16%
same,Cough,mantle cell lymphoma,28%
same,Diarrhea,mantle cell lymphoma,31%
same,Dyspnea,mantle cell lymphoma,"16.9%; mantle cell lymphoma, 18%), Epistaxis (Myelodysplastic"
same,Fatigue,mantle cell lymphoma,34%
same,Fever,mantle cell lymphoma,23%
same,Hypokalemia,mantle cell lymphoma,13%
same,Hypoxia,mantle cell lymphoma,"Respiratory: Hypoxia (Mantle cell lymphoma, 2%), Pleural"
same,"Neutropenia, All grades",mantle cell lymphoma,49%
same,"Neutropenia, Grade 3 or 4",mantle cell lymphoma,43%
same,Peripheral edema,mantle cell lymphoma,16%
same,Pleural effusion,mantle cell lymphoma,"effusion (Mantle cell lymphoma, 7%), Pneumonia (Multiple"
same,Pneumonia,mantle cell lymphoma,"mantle cell lymphoma, 14%), Pneumonitis (Myelodysplastic"
same,Pruritus,mantle cell lymphoma,17%
same,Rash,mantle cell lymphoma,"cell lymphoma, 22%)"
same,"Thrombocytopenia, All grades",mantle cell lymphoma,36%)
same,"Thrombocytopenia, Grade 3 or 4",mantle cell lymphoma,28%
same,Tumor flare,mantle cell lymphoma,10%
same,Upper respiratory infection,mantle cell lymphoma,13%
same,Arthralgia,multiple myeloma,"Musculoskeletal: Arthralgia (Multiple myeloma, 19%;"
same,Asthenia,multiple myeloma,"Neurologic: Asthenia (Multiple myeloma, 28.2%; myelodysplastic"
same,"Atrial fibrillation, Grade 3 or 4",multiple myeloma,3.7%
same,Blurred vision,multiple myeloma,"Ophthalmic: Blurred vision (Multiple myeloma, 17.3%)"
same,"Cataract, Grade 3 or 4",multiple myeloma,"Ophthalmic: Cataract, Grade 3 or 4 (Multiple myeloma, 9.6%;"
same,"Congestive heart failure, Grade 3 or 4",multiple myeloma,"failure, Grade 3 or 4 (multiple myeloma, 1.4%), Myocardial"
same,Constipation,multiple myeloma,"Gastrointestinal: Constipation (Multiple myeloma, 40.5%;"
same,Cough,multiple myeloma,"Respiratory: Cough (Multiple myeloma, 22.7%; myelodysplastic"
same,Cramp,multiple myeloma,33.4%
same,Insomnia,multiple myeloma,"Insomnia (Multiple myeloma, 27.6%; myelodysplastic syndrome,"
same,Peripheral edema,multiple myeloma,"Cardiovascular: Peripheral edema (multiple myeloma, 26.3%;"
same,Pruritus,multiple myeloma,"Dermatologic: Pruritus (Multiple myeloma, 7.6%; myelodysplastic"
same,Rash,multiple myeloma,≤ 26.1%
same,Tremor,multiple myeloma,21.2%
same,Upper respiratory infection,multiple myeloma,"15.5%), Upper respiratory infection (Multiple myeloma, 24.6%;"
same,"Anemia, All grades",myelodysplastic syndrome,"43.8%; myelodysplastic syndrome, 11.5%; mantle cell lymphoma,"
same,"Anemia, Grade 3 or 4",myelodysplastic syndrome,"18.2%; myelodysplastic syndrome, 6.1%; mantle cell lymphoma,"
same,Arthralgia,myelodysplastic syndrome,21.6%
same,Asthenia,myelodysplastic syndrome,14.9%
same,Backache,myelodysplastic syndrome,20.9%
same,Constipation,myelodysplastic syndrome,23.6%
same,Cough,myelodysplastic syndrome,19.6%
same,Cramp,myelodysplastic syndrome,18.2%
same,Diarrhea,myelodysplastic syndrome,48.6%
same,Epistaxis,myelodysplastic syndrome,14.9%
same,Fatigue,myelodysplastic syndrome,31.1%
same,Fever,myelodysplastic syndrome,20.9%
same,Hypokalemia,myelodysplastic syndrome,"17.1%; myelodysplastic syndrome, 10.8%; mantle cell lymphoma,"
same,Insomnia,myelodysplastic syndrome,10.1%
same,Nasopharyngitis,myelodysplastic syndrome,23%
same,"Neutropenia, All grades",myelodysplastic syndrome,58.8%
same,"Neutropenia, Grade 3 or 4",myelodysplastic syndrome,53.4%
same,Peripheral edema,myelodysplastic syndrome,20.3%
same,Pneumonia,myelodysplastic syndrome,11.5%
same,Pruritus,myelodysplastic syndrome,41.9%
same,Rash,myelodysplastic syndrome,35.8%
same,"Thrombocytopenia, All grades",myelodysplastic syndrome,"21.5%; myelodysplastic syndrome, 61.5%; mantle cell lymphoma,"
same,"Thrombocytopenia, Grade 3 or 4",myelodysplastic syndrome,"12.2%; myelodysplastic syndrome, 50%; mantle cell lymphoma,"
same,Upper respiratory infection,myelodysplastic syndrome,14.9%
Cc1nc2n(c(=O)c1CCN1CCC(c3noc4cc(F)ccc34)CC1)CCCC2 [Risperidone (Risperdal)],Akathisia,in vivo,"Neurologic: Akathisia (oral, up to 10%; IM, 4% to 11%), Dizziness"
same,Anxiety,in vivo,"Psychiatric: Anxiety (oral, up to 16% IM, less than 4%)"
same,Constipation,in vivo,"Gastrointestinal: Constipation (oral, 8% to 21%; IM, 5% to 7%),"
same,Diarrhea,in vivo,"Diarrhea (oral, 1% to 8%; IM, less than 4%), Excessive salivation"
same,Dystonia,in vivo,"< 5%; pediatric, 2% to 6%; IM, adult, less than 4%), Parkinsonism"
same,Excessive salivation,in vivo,"(oral, 1% to 10%; IM, 1% to 4%), Increased appetite (oral, adult,"
same,Fatigue,in vivo,"3% to 9%), Pain, General (IM, 1% to 4%)"
same,Hyperprolactinemia,in vivo,"< 1%; pediatrics, 49% to 87%; IM, less than 4%), Weight increased"
same,Increased appetite,in vivo,"more than 5%; pediatric, 4% to 47%; IM, 4%), Indigestion (oral,"
same,Indigestion,in vivo,"2% to 10%; IM, 6%), Nausea (oral, 4% to 16%; IM, 3% to 4%),"
same,Nausea,in vivo,"2% to 10%; IM, 6%), Nausea (oral, 4% to 16%; IM, 3% to 4%),"
same,"Pain, General",in vivo,"3% to 9%), Pain, General (IM, 1% to 4%)"
same,Parkinsonism,in vivo,"(oral, 6% to 28%; IM, 8% to 15%), Sedated (oral, adult, 3% to 6%;"
same,Rash,in vivo,"IM, less than 4%)"
same,Syncope,in vivo,"Syncope (oral, up to 1%; IM, up to 2%)"
same,Tardive dyskinesia,in vivo,"less than 5%; IM, less than 4%)"
same,Tremor,in vivo,"pediatric, 8% to 29%), Tremor (oral, 2% to 12%; IM, 3% to 24%)"
same,Upper respiratory infection,in vivo,"respiratory infection (oral, 2% to 8%; IM, 2% and 6%)"
same,Vomiting,in vivo,"< 16%), Vomiting (oral, 10% to 25%; IM, less than 4%), Xerostomia"
same,Weight increased,in vivo,"(oral, adult, 8.7% to 20.9%; pediatric, 14% to 32.6%; IM, adult, 8%"
same,Xerostomia,in vivo,"(oral, 4% to 15%; IM, up to 7%)"
same,Akathisia,"in vivo, po","Neurologic: Akathisia (oral, up to 10%; IM, 4% to 11%), Dizziness"
same,Anxiety,"in vivo, po","Psychiatric: Anxiety (oral, up to 16% IM, less than 4%)"
same,Cerebrovascular accident,"in vivo, po","Neurologic: Cerebrovascular accident (oral, less than 5%; IM, less"
same,Constipation,"in vivo, po","Gastrointestinal: Constipation (oral, 8% to 21%; IM, 5% to 7%),"
same,Diarrhea,"in vivo, po","Diarrhea (oral, 1% to 8%; IM, less than 4%), Excessive salivation"
same,Excessive salivation,"in vivo, po","(oral, 1% to 10%; IM, 1% to 4%), Increased appetite (oral, adult,"
same,Fatigue,"in vivo, po","Other: Fatigue (oral, adult, 1% to 3%; pediatric, 18% to 42%; IM,"
same,Hyperprolactinemia,"in vivo, po","< 1%; pediatrics, 49% to 87%; IM, less than 4%), Weight increased"
same,Increased appetite,"in vivo, po","more than 5%; pediatric, 4% to 47%; IM, 4%), Indigestion (oral,"
same,Indigestion,"in vivo, po","2% to 10%; IM, 6%), Nausea (oral, 4% to 16%; IM, 3% to 4%),"
same,Nasal congestion,"in vivo, po","4%), Nasal congestion (oral, adult, 4% to 6%; pediatric, 13%),"
same,Nausea,"in vivo, po","2% to 10%; IM, 6%), Nausea (oral, 4% to 16%; IM, 3% to 4%),"
same,Pain in throat,"in vivo, po","throat (oral, adult, more than 5%; pediatric, 3% to 10%), Upper"
same,Parkinsonism,"in vivo, po","(oral, 6% to 28%; IM, 8% to 15%), Sedated (oral, adult, 3% to 6%;"
same,Rash,"in vivo, po","Dermatologic: Rash (oral, adults, 1% to 4%; pediatrics, up to 11%;"
same,Syncope,"in vivo, po","Syncope (oral, up to 1%; IM, up to 2%)"
same,Tardive dyskinesia,"in vivo, po","less than 5%; IM, less than 4%)"
same,Tremor,"in vivo, po","pediatric, 8% to 29%), Tremor (oral, 2% to 12%; IM, 3% to 24%)"
same,Upper respiratory infection,"in vivo, po","respiratory infection (oral, 2% to 8%; IM, 2% and 6%)"
same,Vomiting,"in vivo, po","16%), Vomiting (oral, 10% to 25%; IM, less than 4%), Xerostomia"
same,Weight increased,"in vivo, po","(oral, adult, 8.7% to 20.9%; pediatric, 14% to 32.6%; IM, adult, 8%"
same,Xerostomia,"in vivo, po","(oral, 4% to 15%; IM, up to 7%)"
O=C(NC[C@H]1CN(c2ccc(N3CCOCC3=O)cc2)C(=O)O1)c1ccc(Cl)s1 [Rivaroxaban (Xarelto)],Gastrointestinal hemorrhage,in vivo,"fibrillation, 3.1%)"
same,Syncope,in vivo,Cardiovascular: Syncope (1.2%)
